ChEMBL document CHEMBL3272354, “Antifilarial agents. 1,2-Cyclobutanediamines as analogues of diethylcarbamazine. Status of structure-activity relationships among diethylcarbamazine analogues” (1977)

Columns and labels:
Format in all cases: functional
Litomosoides carinii [1] = test: Antifilarial activity against Litomosoides carinii infected in gerbil assessed as microfilaria count at 25, 50, 100 and 200 mg/kg administered on days 0, 1, 2 and 3 respectively measured on day 14 relative to control
Litomosoides carinii [2] = test: Antifilarial activity against Litomosoides carinii infected in gerbil assessed as microfilaria count at 25, 50, 100 and 200 mg/kg administered on days 0, 1, 2 and 3 respectively measured on day 1 relative to control
Litomosoides carinii [3] = test: Antifilarial activity against Litomosoides carinii infected in gerbil assessed as microfilaria count at 25, 50, 100 and 200 mg/kg administered on days 0, 1, 2 and 3 respectively measured on day 3 relative to control
Litomosoides carinii [4] = test: Antifilarial activity against Litomosoides carinii infected in gerbil assessed as microfilaria count at 25, 50, 100 and 200 mg/kg administered on days 0, 1, 2 and 3 respectively measured on day 7 relative to control
Litomosoides carinii [5] = test: Antifilarial activity against Litomosoides carinii infected in gerbil assessed as microfilaria count at 25, 50, 100 and 200 mg/kg administered on days 0, 1, 2 and 3 respectively measured on day 9 relative to control
Litomosoides carinii [6] = test: In vivo antifilarial activity against Litomosoides carinii
Litomosoides carinii [7] = test: Antifilarial activity against Litomosoides carinii infected in gerbil assessed as microfilaria count at 25, 50, 100 and 200 mg/kg administered on days 0, 1, 2 and 3 respectively measured on day 10 relative to control
Litomosoides carinii [8] = test: Antifilarial activity against Litomosoides carinii infected in cotton rat assessed as reduction of microfilaria relative to control; set-up: scale not given: the % may be the effect or the level left
Litomosoides carinii [9] = test: Antifilarial activity against Litomosoides carinii infected in gerbil assessed as microfilaria count at 25, 50, 100 and 200 mg/kg administered on days 0, 1, 2 and 3 respectively measured on day 11 relative to control
Litomosoides carinii [10] = test: Antifilarial activity against Litomosoides carinii infected in natal multimammate rat assessed as reduction of microfilaria relative to control; set-up: scale not given: the % may be the effect or the level left

Row | Structure (SMILES) | Activity (Litomosoides carinii [1]) | Activity (Litomosoides carinii [2]) | Activity (Litomosoides carinii [3]) | Activity (Litomosoides carinii [4]) | Activity (Litomosoides carinii [5]) | Activity (Litomosoides carinii [6]) | Activity (Litomosoides carinii [7]) | Activity (Litomosoides carinii [8]) | Activity (Litomosoides carinii [9]) | Activity (Litomosoides carinii [10])
1 | CCOC(=O)N[C@H]1CC[C@@H]1NC.Cl | 151% | 101% | 113% | 122% | 99% | – | – | – | – | –
2 | CCN(CC)C(=O)N1CCCN(C)CC1 | – | – | – | – | – | 1% | – | – | – | –
3 | CCOC(=O)N[C@H]1CC[C@H]1N(C)C.O=C(O)/C=C\C(=O)O (relative stereo) | 199% | 127% | 59% | 169% | 154% | – | – | – | – | –
4 | CCOC(=O)N[C@H]1CC[C@@H]1N.Cl (relative stereo) | 153% | 107% | 163% | 148% | – | – | 182% | – | – | –
5 | CCOC(=O)N[C@H]1CC[C@@H]1NC(=O)OCC (relative stereo) | 208% | 189% | 236% | 201% | 240% | – | – | – | – | –
6 | CCOC(=O)N(C)[C@H]1CC[C@@H]1NC.O=C(O)/C=C\C(=O)O (relative stereo) | 165% | 150% | 160% | 150% | 95% | – | – | – | – | –
7 | CCOC(=O)N[C@H]1CC[C@@H]1N(C)C.O=C(O)/C=C\C(=O)O (relative stereo) | 213% | 96% | 190% | 158% | 133% | – | – | – | – | –
8 | CCN(CC)C(=O)N[C@H]1CC[C@@H]1N(C)C.O=C(O)CC(O)(CC(=O)O)C(=O)O (relative stereo) | 161% | 106% | 113% | 111% | 137% | – | – | – | – | –
9 | CCN(CC)C(=O)N(C)[C@H]1CC[C@@H]1N(C)C.O=C(O)/C=C\C(=O)O (relative stereo) | 100% | 185% | 99% | 174% | 159% | – | – | – | – | –
10 | CCN(CC)C(=O)N1CCN(C)CC1 [DIETHYLCARBAMAZINE] | – | 6% | 0.1% | – | 29% | – | – | 1% | 43% | –
11 | CN1CCN(C(=O)C2CCCCC2)CC1 [PEXANTEL] | – | – | – | – | – | – | – | – | – | 1%
